Entries after “also recorded” stand apart in the source; their conditions may differ.
Legend:
Assay type in all cases: cell-based
BT474 cells [1] = experiment: Immunoblot analysis of BT474 cell extracts
Protocol: (§1) The following cell lines were purchased from American Type Culture Collection (ATCC) (Manassas, Va.): MDA-MB-468, BT474, T47D, SKBR3, MDA-MB-231, HCC1954, HEK 293, TSC2-Ang1, and BxPC3. The HCI-012 cell line was derived from the HCI-012 Patient-Derived Xenograft tumor line provided by Dr. Alana Welm using conditional cell reprogramming. Wild type and eIF2α[S51A] homozygous knock-in Mouse Embryo Fibroblasts (MEFs) were described previously.
(§2) Cells were grown in Dulbecco's modified Eagle's medium (GE Healthcare Life Sciences Logan, Utah) supplemented with 10% fetal bovine serum (10% FBS-DMEM) in a humidified 37° C. incubator with 5% CO2. Cell lysates were prepared using a buffer containing 1% Triton X100, 20 mM HEPES (pH 7.4), 1 mM EDTA, 1 mM EGTA, 0.1% 3-mercaptoethanol, 5% glycerol, 10 nM microcystin, 200 μM Na3VO4 and 40 mM Na2H2P2O7 as described previously.
(§3) Immunoblot analysis was carried out using primary antibodies purchased from Santa Cruz Biotechnology (Dallas, Tex.) [Actin, sc-1616-R; ERK, sc-93; JNK, sc-572; P-JNK, sc-6254; Src, sc-18; EGFR, sc-03; GRP78, sc-13539; Phosphotyrosine (PY99), sc-7020], Cell Signaling Technology (Beverly, Mass.) [Akt, #4691; P-Akt[T308], #13038; P-Akt[S473], #9271; ATF4, #11815; CHOP, #2895; P-Src[Y527], #2105; EGFR, #4267; HER2, #2165; HER3, #4754; Calnexin, #2679; #13024; P-Erk, #9101; IRE1α, #3294; XBP1s, #12782; PARP, #9532; PDI, #3501; PERK, #5683; S6, #2212; P-S6, #2211; P-Src[Y416], #6943], BD Transduction Laboratories (San Jose, Calif.) [PAI-1, 612024], Millipore (Temecula, Calif.) [anti-phosphotyrosine (4G10), 05-321], and Sigma-Aldrich (St. Louis, Mo.) [anti-FLAG (M2), F3165]. To quantify immunoblot results, bands were analyzed using ImageJ (imagej.nih.gov/ij/) and each band was normalized to the corresponding Actin loading control band.

MDA-MB-468 cells [2] = experiment: Immunoblot analysis of MDA-MB-468 cell extracts; conditions: for ER stress response / UPR activation / HER3 levels / Akt phosphorylation / PARP cleavage (cell death): 2-DOG 4 mM; for ER stress response / UPR activation / Akt phosphorylation / PARP cleavage (cell death): DTDO 20 μM; for ATF4 and CHOP expression: compared with 20 μM RBF3
Protocol: as §1, §2, §3

[3] = system: Mouse Embryo Fibroblasts (MEFs); experiment: Immunoblot analysis of Mouse Embryo Fibroblasts; conditions: 24 hours, thapsigargin 400 nM, tunicamycin 500 ng/ml; for Akt phosphorylation, wild type MEFs / ER stress response / UPR, wild type MEFs / PARP cleavage, wild type MEFs: RBF3 20 μM, DTT 5 mM
Protocol: as §1, §2, §3

[4] = system: MDA-MB-468 or BT474 cells; experiment: Immunoblot analysis, MDA-MB-468 or BT474 cells (text does not separate the lines); conditions: for DDA activation of the ER stress response when protein synthesis is inhibited: 20 μM RBF3 with 20 μM CHX or 5 μg/ml Puromycin
Protocol: as §2, §3

[5] = system: XBP1 mRNA splicing in MDA-MB-468 cells; experiment: RT-PCR of XBP1 mRNA splicing; conditions: 24 hours; RBF3 20 μM, DTT 2 mM
Protocol: RNA was isolated from MDA-MB-468 and BT474 cells with Trizol Reagent (Invitrogen) according to the manufacturer's instructions, and reverse transcribed to cDNA under the following conditions: 25° C. for 10 min, 42° C. for 30 min, and 95° C. for 5 min. PCR was performed using XBP1 and β-Actin primers. The primers used to amplify XBP1 are as follows: Forward: […] and Reverse: […]. The primers used to amplify (3-Actin are as follows: Forward: […] and Reverse: […]. Reactions were performed as follows: 96° C. for 5 min followed by 35 cycles of 95° C. for 45 sec, 60° C. for 1 min, and 72° C. for 30 sec. Reaction products were visualized on 3% agarose gels.

HCC1954 cells = experiment: Immunoblot analysis of HCC1954 cells; conditions: 24 hour; 20 μM RBF3, 20 μM Lapatinib
T47D cells = experiment: Immunoblot analysis of T47D stable cell lines (vector, EGFR or HER2 overexpressing); conditions: 20 μM NSC624205, 24 hours
Protocol: Recombinant retroviruses were prepared and used to produce stable cell lines as described previously. Retroviral vectors encoding EGFR (plasmid 11011, [68]) and HER2 (plasmid 40978 [69]) were from Addgene (Cambridge, Mass.).
as §2, with “previously. […]” for “previously.”

MDA-MB-468 cells [6] = experiment: MTT cell viability assay, MDA-MB-468; conditions: 72 hours, increasing concentrations
Protocol: (§4) Cell viability was evaluated using MTT (3-(4,5-dimethylthiazol-2-yl)-2,5-diphenyltetrazolium bromide) assays carried out based on the manufacturer's instructions (kit CGD1, Sigma-Aldrich, St. Louis, Mo.)

BT474 cells [7] = experiment: MTT cell viability assay, BT474; conditions: 72 hours
Protocol: as §4

[8] = 24 hours, RBF3 20 μM, 2-DOG 4 mM
[9] = 24 hours, RBF3 20 μM, thapsigargin 400 nM
[10] = RBF3 20 μM, thapsigargin 400 nM, DTT 2 mM
[11] = thapsigargin 400 nM, tunicamycin 500 ng/ml, DTT 2 mM
[12] = 2.5 μM Gefitinib or Lapatinib, 24 hours
[13] = increasing concentration, 24 hours (FIG. 5B)

O[C@H](CS)[C@H](O)CS (racemic) [DTT, dithiothreitol]
EGFR and HER2 expression (BT474 cells [1]; 24 hours, RBF3 20 μM): only does so in the MDA-MB-468 line | XBP1s and GRP78 expression (ER stress markers) (BT474 cells [1]; 24 hours, RBF3 20 μM): increased | Akt phosphorylation (BT474 cells [1]; [8]): decreased | ATF4 and CHOP expression (BT474 cells [1]; [9]): little upregulation | ER stress response / UPR activation (MDA-MB-468 cells [2]; 24 hours, DTT 2 mM): only weakly activated | GRP78 expression (MDA-MB-468 cells [2]; 24 hours, RBF3 20 μM, DTT 2 mM): only weakly induces | HER3 levels (MDA-MB-468 cells [2]; 24 hours, RBF3 20 μM, DTT 2 mM): less so; also recorded: induces downregulation | Akt phosphorylation (MDA-MB-468 cells [2]; 24 hours, RBF3 20 μM, DTT 2 mM): suppresses | PARP cleavage (cell death) (MDA-MB-468 cells [2]; 24 hours, RBF3 20 μM, DTT 2 mM): only weakly induces | EGFR levels (MDA-MB-468 cells [2]; 24 hours, RBF3 20 μM, thapsigargin 400 nM, tunicamycin 500 ng/ml, DTT 2 mM): induces downregulation | XBP1s expression (MDA-MB-468 cells [2]; [10]): does not upregulate | ATF4 and CHOP expression (MDA-MB-468 cells [2]; [11]): does not upregulate | Akt phosphorylation, wild type MEFs [3]: weakly suppressed | ER stress response / UPR, wild type MEFs [3]: did not induce | PARP cleavage, wild type MEFs [3]: induced PARP cleavage | concentrations that activate UPR / induce a similar level of ER stress [4]: millimolar concentrations | IRE1-dependent XBP1 mRNA processing / splicing [5]: does not upregulate

NCCOB(c1ccccc1)c1ccccc1 [2-APB, 2-aminoethoxydiphenyl borate]
RBF3-induced downregulation of HER3, Akt dephosphorylation, or PARP cleavage, with 2-APB [4]: did not alter | RBF3-mediated GRP78 upregulation, with 2-APB [4]: reduced

O=CC[C@@H](O)[C@H](O)[C@H](O)CO [2-DOG, 2-deoxyglucose]
HER3 expression (BT474 cells [1]; 24 hours, 2-DOG 4 mM): did not cause downregulation | PARP cleavage (BT474 cells [1]; 24 hours, 2-DOG 4 mM): did not increase cell death | UPR activation (BT474 cells [1]; 24 hours, 2-DOG 4 mM): strongly activated UPR | Akt phosphorylation (BT474 cells [1]; [8]): did not cause downregulation | ER stress response / UPR activation (MDA-MB-468 cells [2]; 24 hours, DTT 2 mM): strongly activated UPR | HER3 levels (MDA-MB-468 cells [2]; 24 hours, RBF3 20 μM, DTT 2 mM): did not cause downregulation | Akt phosphorylation (MDA-MB-468 cells [2]; 24 hours, RBF3 20 μM, DTT 2 mM): did not cause downregulation | PARP cleavage (cell death) (MDA-MB-468 cells [2]; 24 hours, RBF3 20 μM, DTT 2 mM): did not increase cell death

C[C@@H]1C[C@@H]([C@H](O)CC2CC(=O)NC(=O)C2)C(=O)[C@@H](C)C1 [CHX, cycloheximide]
HER2 expression, RBF3 with CHX (BT474 cells [1]; 24 hour, 20 μM RBF3, 20 μM CHX): partially restored | RBF3-mediated UPR on co-treatment with CHX (MDA-MB-468 cells [2]; 2-16 hrs): rapidly and persistently blocked | DDA-mediated downregulation of EGFR or HER3, with CHX ([4]; 8 hours, 20 μM RBF3, 20 μM CHX): did not overcome | RBF3-induced PARP cleavage and Akt dephosphorylation, with CHX ([4]; 8 hours, 20 μM RBF3, 20 μM CHX): partly overcame | DDA activation of the ER stress response when protein synthesis is inhibited ([4]; 8 hours): reduced | CHX blockade of RBF3-induced PARP cleavage ([4]; 24 hour treatment): less apparent

COc1cc2ncnc(Nc3ccc(F)c(Cl)c3)c2cc1OCCCN1CCOCC1 [Gefitinib]
CHOP expression, combination with RBF3 (MDA-MB-468 cells [2]; [12]): cooperated with RBF3 to upregulate | concentration of RBF3 required to downregulate HER3 levels and Akt phosphorylation, on co-treatment (MDA-MB-468 cells [2]; [12]): lowered

CS(=O)(=O)CCNCc1ccc(-c2ccc3ncnc(Nc4ccc(OCc5cccc(F)c5)c(Cl)c4)c3c2)o1 [Lapatinib]
concentration of RBF3 required to downregulate HER3 levels and Akt phosphorylation, on co-treatment (MDA-MB-468 cells [2]; [12]): lowered | CHOP expression, Lapatinib with RBF3 (HCC1954 cells): cooperated with RBF3 to upregulate | RBF3-induced UPR with respect to GRP78, XBP1s, or ATF4 levels, with Lapatinib (HCC1954 cells): only weakly potentiated

O=S(O)CCCCSSCCCCSSCCCCS(=O)O [NSC624205]
HER3 expression in EGFR or HER2 overexpressing T47D cells (T47D cells): reduced HER3 expression to very low levels; also recorded: more sensitive to downregulation

O=C(CCSSCCCCS(=O)[O-])OCC(COC(=O)CCSSCCCCS(=O)[O-])(COC(=O)CCSSCCCCS(=O)[O-])COC(=O)CCSSCCCCS(=O)[O-].[Na+].[Na+].[Na+].[Na+] (centres unmarked) [PEMP-DDA]
cell viability (MTT) (MDA-MB-468 cells [6]): reduced cell viability in a concentration-dependent manner | HER2 expression, quantified, compared with RBF3 (BT474 cells [1]; same drug concentrations, 24 hours (FIG. 6B)): significantly more than RBF3 | PARP cleavage (cPARP), quantified, compared with RBF3 (BT474 cells [1]; same drug concentrations, 24 hours (FIG. 6C)): significantly more than RBF3 | Akt phosphorylation, comparison of bi-, tri- and tetravalent DDAs (MDA-MB-468 cells [2]; [13]): more than RBF3 or Bn-DDA | HER3 levels, comparison of bi-, tri- and tetravalent DDAs (MDA-MB-468 cells [2]; [13]): more than RBF3 or Bn-DDA | cell viability (MTT) (BT474 cells [7]): reduced BT474 cell viability more than RBF3

COc1ccc(C[C@H](N)C(=O)N[C@H]2[C@@H](O)[C@H](n3cnc4c(N(C)C)ncnc43)O[C@@H]2CO)cc1 [Puromycin, puromycin]
DDA activation of the ER stress response when protein synthesis is inhibited ([4]; 8 hours): reduced

C/C=C(/C)C(=O)O[C@H]1C(C)=C2[C@H]([C@@H]1OC(=O)CCCCCCC)[C@@](C)(OC(C)=O)C[C@H](OC(=O)CCC)[C@@]1(O)[C@H]2OC(=O)[C@@]1(C)O [thapsigargin]
ATF4 and CHOP expression (BT474 cells [1]; [9]): strongly upregulated | PERK electrophoretic mobility (BT474 cells [1]; 24 hours, thapsigargin 400 nM): more strongly decreased | XBP1s expression (MDA-MB-468 cells [2]; [10]): more strongly than RBF3 | ATF4 and CHOP expression (MDA-MB-468 cells [2]; [11]): more effectively than RBF3 | ATF4 and CHOP expression (MDA-MB-468 cells [2]; thapsigargin 400 nM, tunicamycin 500 ng/ml, DTT 2 mM, listed as Thapsigargin): more strongly than RBF3 | Akt phosphorylation, wild type MEFs [3]: markedly suppressed | ER stress response / UPR, wild type MEFs [3]: induced a robust UPR | PARP cleavage, wild type MEFs [3]: strongly upregulated | CHOP, ATF4, and GRP78 upregulation in eIF2α[S51A] knock-in MEFs [3]: significantly blunted | PARP cleavage or XBP1s upregulation, effect of S51A eIF2a mutation [3]: did not affect

tunicamycin
ATF4 and CHOP expression (MDA-MB-468 cells [2]; [11]): more effectively than RBF3 | Akt phosphorylation, wild type MEFs [3]: markedly suppressed | ER stress response / UPR, wild type MEFs [3]: induced a robust UPR | PARP cleavage, wild type MEFs [3]: strongly upregulated | CHOP, ATF4, and GRP78 upregulation in eIF2α[S51A] knock-in MEFs [3]: significantly blunted | PARP cleavage or XBP1s upregulation, effect of S51A eIF2a mutation [3]: did not affect
